Literature values as cited in US20200222348A1, “BIMODAL MODIFIED RELEASE COMPOSITIONS FOR CANCER TREATMENT” (MUSLI THYROPEUTICS LTD., priority 2017, published 2020).

Details: stated as general knowledge

Q: Which biological half-life (T3, short biological half-life) does the source give for N[C@@H](Cc1cc(I)c(Oc2ccc(O)c(I)c2)c(I)c1)C(=O)O [Example T3, triiodothyronine] here?
A: 48-60 hours

Q: And the Tmax in serum (T3 in serum)?
A: about 4 hrs
